Test results published in publication PMC11767819, “Drug Screening of Flavonoids as Potential VEGF Inhibitors Through Computational Docking and Cell Models” (Molecules, 2025).
Read-outs that look alike come from different tables or passages of the source.

Legend:
[1] = system: NF-κB in RAW 264.3 cells; test: Luciferase activity of NF-κB, VEGF-induced; assay type: cell-based; conditions: chemicals 1, 10 and 25 µM, avastin 10 ng/mL
Experimental: The luciferase of NK-κB activity was performed following a previous report. Briefly, RAW 264.3 cells were transfected with pNF-κB (Thermo Fisher Scientific) using jetPRIME and incubated for 24 h. The refresh medium was replaced every four hours, and drug treatments were added twice after 24 h or 48 h. Upon completion of the reaction, the chemical luminescent intensity was determined by a luminometer (Promega, WI, USA) and normalized by protein concentrations.

[2] = system: HaCaT cells; test: Wound closure (wound healing) assay, VEGF-induced; assay type: cell-based; conditions: Homo sapiens, 20 h, read-out: IC50 of inhibition of wound recovery rate
Experimental: Photos of each cell scrape at 0 (At0) and 20 h (At20) were captured with microscope and imaging software (Zen, https://www.zeiss.com/microscopy/en/home.html, accessed on 1 September 2024) at a 10× magnification. […] A: positive control, Avastin; F: farrerol; O: ononin; E: (−)-epicatechin.
A wound closure assay was performed on cultured HaCaT cells to study cell migration in vitro. Procedures were described previously by Guo et al.. Briefly, HaCaT cells were seeded onto a 12-well plate with a density of 3 × 10^5 cells/well. Treatments were given when cells grew to full confluency. After serum starvation, sterile 200 μL pipette tips were used to make a vertical and a horizontal scrape on the cell monolayer in a consistent manner. Cells were washed with PBS and treated with drugs at various concentrations. Photos of each cell scrape at 0 (At0) and 20 h (At20) were captured with a microscope and imaging software (Zen) at a 10× magnification. The software TScratch (CSE lab, Zurich, Switzerland, https://github.com/cselab/TScratch, accessed on 1 September 2024) was used to analyze the open area of each scrape photo at different timepoints. Quantification of the recovery rate of the wound was calculated based on the following equation: wound closure (%) = (At0 − At20)/At20 × 100%.

[3] = Chemical stability test through HPLC analysis; assay type: physicochemical; conditions: for Inter-Day RSD / Inter-Day Mean Peak Area: 6 consecutive days; for Inter-Day RSD / Intra-Day RSD: n = 6; for Inter-Day Mean Peak Area / Intra-Day Mean Peak Area: n = 6, 210 nm; for Intra-Day RSD / Intra-Day Mean Peak Area: same day; for Stability in aqueous solution (in words): acidic, neutral and basic conditions, HPLC
Excerpt: Chemical degradation has been a major factor resulting in molecular hydrolysis, oxidation, light-catalyzed degradation and so on. Therefore, stability in aqueous solution, including acidic, neutral and basic conditions, has become a crucial requirement for a promising drug candidate. Prior to the biochemical assay, three phytochemicals were subjected to HPLC analysis to determine their stabilities in various solutions. Glycine buffer (pH 8–11), PBS (pH 7–8) and acetate buffer (pH 4–6) were employed to cover the main pH ranges. […].
The stability test was validated by determining the intra-day and inter-day variability through HPLC analysis, which was performed on an Agilent 1200 Liquid Chromatography (Santa Clara, CA, USA) equipped with an ODS C18 column (4.6 mm × 250 mm). Glycine buffer (pH 8–11), PBS (pH 7–8) and acetate buffer (pH 4–6) were employed to cover main pH ranges. Stock solutions at a concentration of 10 mM of the test compounds were prepared in DMSO and stored at −20 °C, while working concentrations were prepared at 1–5 μM solution in DMSO and buffers. Chromatography was conducted through the ORBAX XDB-C18 column (Agilent, 4.6 × 50 mm, 1.8 μm). The mobile phase was a mixture of water and acetonitrile (95:5, v/v), and the elution time was 15 min. The mobile phase flow rate and injection volume were 1.0 mL/min and 10 μL, respectively. Analytes were detected at a 210 nm wavelength. The intra-day and inter-day stability was calculated by analyzing six replicates of the standard solution of the two analytes during a single day and six replicates of the samples detected on six consecutive days, respectively. Thereafter, the relative standard deviation (RSD) was determined as a measurement of stability.

[4] = target: T1, VEGF protein (Homo sapiens, UniProt P15692); test: Ultrafiltration-based affinity assay; assay type: binding; conditions: ligand 0.02 µM, VEGF protein 0.02 µM, 4 °C, 2 h, n = 4
T1 construct: purchased MCE
T1 sequence (P15692 1-191 isoform P15692-4): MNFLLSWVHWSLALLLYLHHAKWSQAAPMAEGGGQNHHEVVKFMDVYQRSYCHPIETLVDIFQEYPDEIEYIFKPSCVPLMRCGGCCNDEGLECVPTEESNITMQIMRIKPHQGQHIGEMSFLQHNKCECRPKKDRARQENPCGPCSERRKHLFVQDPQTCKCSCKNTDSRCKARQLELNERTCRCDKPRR
Experimental: Caco-2 cells were cultured until fully differentiated after being cultured for 21 days, and the integrity of cell monolayer was determined by the transepithelial electrical resistance (TEER). * p < 0.05. […] Red curve: initial concentration of chemicals; black curve: concentration of chemicals binding to the protein (Cpre − Cpost). n = 4.
The binding affinity was evaluated through the previous approach. Specifically, the tested ligands at 0.02 µM were mixed with or without 0.02 µM of the VEGF protein (MCE, Monmouth Junction, NJ, USA) and incubated in Milli-Q water (Burlington, MA, USA) at 4 °C for 2 h. The mixture was transferred to a 0.5 mL ultrafiltration tube (2000 MW cutoff; Sartorius Stedim Biotech, Gottingen, Germany). After multiple rounds of centrifugation, the supernatant was further analyzed through HPLC investigation, as described above in Section 4.6.

[5] = system: HaCaT cells; test: MTT cell viability assay; assay type: cell-based, human; conditions: concentrations up to 100 µM, 24 h
Experimental: Cell viability was assessed with the MTT assay to evaluate the potential toxicity effect of the tested drugs. HaCaT cells were seeded onto 96-well plates for 24 h prior to drug treatments. After incubations for 24 h, an MTT solution in a final concentration of 0.5 mg/mL was added to each well. Following another 3 h of incubation, DMSO solvent was used to dissolve the purple formazan crystals generated in each well. The absorbance of the samples at 570 nm was measured using a microplate reader (Thermo Fisher Scientific). The cell viability was calculated as follows: cytotoxicity (%) = (experimental value − low control)/(high control − low control) × 100%.

[6] = system: endothelial cells; conditions: cell proliferation and migration in endothelial cells, phosphorylation of PI3-K/Akt, JNK and eNOS; cited from earlier work
[7] = system: tumor growth; conditions: nude mice; cited from earlier work

| Compound | Inter-Day RSD ([3]; acidic (acetate buffer pH 4–6)) [%] | Inter-Day Mean Peak Area ([3]; acidic (acetate buffer pH 4–6)) | Intra-Day RSD ([3]; acidic (acetate buffer pH 4–6)) [%] | Intra-Day Mean Peak Area ([3]; acidic (acetate buffer pH 4–6)) | Inter-Day RSD ([3]; basic (glycine buffer pH 8–11)) [%] | Inter-Day Mean Peak Area ([3]; basic (glycine buffer pH 8–11)) | Intra-Day RSD ([3]; basic (glycine buffer pH 8–11)) [%] | Intra-Day Mean Peak Area ([3]; basic (glycine buffer pH 8–11)) | Inter-Day RSD ([3]; neutral (PBS pH 7–8)) [%] | Inter-Day Mean Peak Area ([3]; neutral (PBS pH 7–8)) | Intra-Day RSD ([3]; neutral (PBS pH 7–8)) [%] | Intra-Day Mean Peak Area ([3]; neutral (PBS pH 7–8)) | protein binding degree [4] [%] | Effect on VEGF-induced NF-κB activity (in words) [1] | IC50 ([2]; HaCaT cells, VEGF-induced) [µM] | Stability in aqueous solution (in words) [3] | Cell viability (cytotoxic effect) [5] | IC50 ([2]; HaCaT) [µM] | Inhibition of VEGF-mediated biological activities (in words) [6] | Tumor growth (in words) [7] |
| --- | --- | --- | --- | --- | --- | --- | --- | --- | --- | --- | --- | --- | --- | --- | --- | --- | --- | --- | --- | --- |
| OC[C@H]1O[C@@H](Oc2cc(O)cc(/C=C/c3ccc(O)cc3)c2)[C@H](O)[C@@H](O)[C@@H]1O [polydatin] | – | – | – | – | – | – | – | – | – | – | – | – | – | – | – | – | – | – | robust inhibition | – |
| Oc1ccc(/C=C/c2cc(O)cc(O)c2)cc1 [resveratrol] | – | – | – | – | – | – | – | – | – | – | – | – | – | – | – | – | – | – | robust inhibition | significantly suppress tumor growth |
| avastin: Bevacizumab (avastin), first monoclonal antibody targeting the VEGF protein; positive control | – | – | – | – | – | – | – | – | – | – | – | – | – | attenuate the NF-κB signal | – | – | – | – | – | – |

The next lines start with results.

| Inter-Day RSD ([3]; acidic (acetate buffer pH 4–6)) [%] | Inter-Day Mean Peak Area ([3]; acidic (acetate buffer pH 4–6)) | Intra-Day RSD ([3]; acidic (acetate buffer pH 4–6)) [%] | Intra-Day Mean Peak Area ([3]; acidic (acetate buffer pH 4–6)) | Inter-Day RSD ([3]; basic (glycine buffer pH 8–11)) [%] | Inter-Day Mean Peak Area ([3]; basic (glycine buffer pH 8–11)) | Intra-Day RSD ([3]; basic (glycine buffer pH 8–11)) [%] | Intra-Day Mean Peak Area ([3]; basic (glycine buffer pH 8–11)) | Inter-Day RSD ([3]; neutral (PBS pH 7–8)) [%] | Inter-Day Mean Peak Area ([3]; neutral (PBS pH 7–8)) | Intra-Day RSD ([3]; neutral (PBS pH 7–8)) [%] | Intra-Day Mean Peak Area ([3]; neutral (PBS pH 7–8)) | protein binding degree [4] [%] | Compound | Effect on VEGF-induced NF-κB activity (in words) [1] | IC50 ([2]; HaCaT cells, VEGF-induced) [µM] | Stability in aqueous solution (in words) [3] | Cell viability (cytotoxic effect) [5] | IC50 ([2]; HaCaT) [µM] | Inhibition of VEGF-mediated biological activities (in words) [6] | Tumor growth (in words) [7] |
| --- | --- | --- | --- | --- | --- | --- | --- | --- | --- | --- | --- | --- | --- | --- | --- | --- | --- | --- | --- | --- |
| 11.91 | 2510.4 | 3.98 | 2751.5 | 13.58 | 2519.4 | 4.85 | 2726.0 | 7.56 | 2601.7 | 1.38 | 2826.6 | 50.3 | Oc1cc(O)c2c(c1)O[C@H](c1ccc(O)c(O)c1)[C@H](O)C2 [(−)-epicatechin] | suppressed in dose-dependent manners | 9.2 | some mild degradation of (−)-epicatechin was induced in acidic and basic environments | cells remained unaffected | – | – | – |
| 5.89 | 38,145.2 | 4.09 | 31,803.7 | 6.54 | 35,412.4 | 2.81 | 33,332.4 | 4.43 | 36,478.1 | 4.79 | 31,542.0 | 58.3 | Cc1c(O)c(C)c2c(c1O)C(=O)C[C@@H](c1ccc(O)cc1)O2 [farrerol] | – | – | relatively stable in diverse aqueous conditions | cells remained unaffected | 4.7 | – | – |
| 4.12 | 275,981.3 | 1.93 | 254,398.2 | 4.78 | 274,514.7 | 3.12 | 273,422.8 | 3.65 | 265,877.4 | 1.61 | 313,200.4 | 53.4 | COc1ccc(-c2coc3cc(O[C@@H]4O[C@H](CO)[C@@H](O)[C@H](O)[C@H]4O)ccc3c2=O)cc1 [ononin] | suppressed in dose-dependent manners | 3.8 | relatively stable in diverse aqueous conditions | cells remained unaffected | – | – | – |
